# Reference: ChEMBL document CHEMBL4364295, “Discovery of a First-in-Class Receptor Interacting Protein 2 (RIP2) Kinase Specific Clinical Candidate, 2-((4-(Benzo[d]thiazol-5-ylamino)-6-(tert-butylsulfonyl)quinazolin-7-yl)oxy)ethyl Dihydrogen Phosphate, for the Treatment of Inflammatory Diseases” (J Med Chem, 2019)
# Legend:
# [1] = AUC in Sprague-Dawley rat assessed as 2-((4-(Benzo[d]thiazol-5-ylamino)-6-(tert-butylsulfonyl)quinazolin-7-yl)oxy)ethanol level at 2 mg/kg, po by LC/MS/MS analysis; format: ADME, organism-based; conditions: in vivo
# [2] = Drug uptake in po dosed Sprague-Dawley rat systemic circulation by LC/MS/MS analysis; format: ADME, organism-based; conditions: in vivo
# [3] = molecular target: Voltage-gated inwardly rectifying potassium channel KCNH2 (Homo sapiens, UniProt Q12809); experiment: Inhibition of human ERG (1159 residues) expressed in CHOK1 cells at -80 mV holding potential measured after 5 mins by QPatch electrophysiology method; format: cell-based
# Voltage-gated inwardly rectifying potassium channel KCNH2, sequence (Q12809 whole entry): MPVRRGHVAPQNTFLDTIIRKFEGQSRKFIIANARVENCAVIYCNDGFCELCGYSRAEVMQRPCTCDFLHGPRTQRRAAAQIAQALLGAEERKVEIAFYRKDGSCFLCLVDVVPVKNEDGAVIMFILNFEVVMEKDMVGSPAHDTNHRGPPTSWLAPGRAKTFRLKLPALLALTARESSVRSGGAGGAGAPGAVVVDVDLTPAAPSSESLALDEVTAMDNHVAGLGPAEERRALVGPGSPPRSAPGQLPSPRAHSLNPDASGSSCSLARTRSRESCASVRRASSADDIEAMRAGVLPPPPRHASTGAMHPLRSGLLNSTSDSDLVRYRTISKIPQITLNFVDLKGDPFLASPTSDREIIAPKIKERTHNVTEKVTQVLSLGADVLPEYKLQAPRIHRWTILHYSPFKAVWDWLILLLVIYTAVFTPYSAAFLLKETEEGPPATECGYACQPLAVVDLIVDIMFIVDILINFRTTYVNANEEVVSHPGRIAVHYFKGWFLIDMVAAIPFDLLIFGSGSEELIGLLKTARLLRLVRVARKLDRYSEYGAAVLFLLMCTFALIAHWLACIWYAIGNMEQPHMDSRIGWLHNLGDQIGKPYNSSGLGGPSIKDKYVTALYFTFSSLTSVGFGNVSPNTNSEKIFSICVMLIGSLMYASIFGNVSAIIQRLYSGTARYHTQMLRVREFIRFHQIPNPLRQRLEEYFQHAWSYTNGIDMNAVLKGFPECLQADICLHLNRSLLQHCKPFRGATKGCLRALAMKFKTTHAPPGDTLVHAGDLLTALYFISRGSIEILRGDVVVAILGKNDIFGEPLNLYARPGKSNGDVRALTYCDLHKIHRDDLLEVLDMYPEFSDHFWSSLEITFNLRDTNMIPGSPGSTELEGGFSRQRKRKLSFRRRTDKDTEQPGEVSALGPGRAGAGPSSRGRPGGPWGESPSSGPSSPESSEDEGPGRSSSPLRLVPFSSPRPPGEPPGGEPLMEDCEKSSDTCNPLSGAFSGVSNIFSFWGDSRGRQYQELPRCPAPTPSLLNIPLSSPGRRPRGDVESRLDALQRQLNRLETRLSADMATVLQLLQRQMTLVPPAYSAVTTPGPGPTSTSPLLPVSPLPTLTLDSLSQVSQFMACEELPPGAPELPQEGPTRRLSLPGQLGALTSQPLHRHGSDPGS
# Cytochrome P450 3A4 = Cytochrome P450 3A4 (Homo sapiens, UniProt P08684); experiment: Inhibition of CYP3A4 (unknown origin); format: ADME
# Cytochrome P450 3A4, sequence (P08684 whole entry): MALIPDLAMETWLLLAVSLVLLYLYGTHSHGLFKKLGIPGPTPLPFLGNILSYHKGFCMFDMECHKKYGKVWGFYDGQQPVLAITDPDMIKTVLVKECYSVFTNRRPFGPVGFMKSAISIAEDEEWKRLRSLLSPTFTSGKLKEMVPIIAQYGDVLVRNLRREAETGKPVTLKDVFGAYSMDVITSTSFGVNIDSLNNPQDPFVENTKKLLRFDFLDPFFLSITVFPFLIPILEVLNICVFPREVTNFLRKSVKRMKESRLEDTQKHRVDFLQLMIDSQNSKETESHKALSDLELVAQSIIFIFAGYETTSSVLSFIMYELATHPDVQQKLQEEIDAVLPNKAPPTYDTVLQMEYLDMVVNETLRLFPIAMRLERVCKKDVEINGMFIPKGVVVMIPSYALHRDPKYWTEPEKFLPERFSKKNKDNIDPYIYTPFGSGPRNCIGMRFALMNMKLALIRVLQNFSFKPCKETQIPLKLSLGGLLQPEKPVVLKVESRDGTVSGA
# [4] = Cmax in Beagle dog assessed as 2-((4-(Benzo[d]thiazol-5-ylamino)-6-(tert-butylsulfonyl)quinazolin-7-yl)oxy)ethanol level at 2 mg/kg, po by LC/MS/MS analysis; format: ADME, organism-based, Canis lupus familiaris; design: dose 2 mg/kg, route oral; conditions: in vivo
# [5] = Terminal half life in Beagle dog assessed as 2-((4-(Benzo[d]thiazol-5-ylamino)-6-(tert-butylsulfonyl)quinazolin-7-yl)oxy)ethanol level at 2 mg/kg, po or 0.9 mg/kg, iv by LC/MS/MS analysis; format: ADME, organism-based, Canis lupus familiaris; conditions: in vivo
# [6] = AUC in Gottingen minipig assessed as 2-((4-(Benzo[d]thiazol-5-ylamino)-6-(tert-butylsulfonyl)quinazolin-7-yl)oxy)ethanol level at 1 mg/kg, po by LC/MS/MS analysis; format: ADME, organism-based, Sus scrofa; conditions: pig, in vivo
# [7] = Half life in human intestinal S9 fraction; format: ADME, subcellular, Intestine
# [8] = Prodrug conversion in Han Wistar rat colon assessed as 2-((4-(Benzo[d]thiazol-5-ylamino)-6-(tert-butylsulfonyl)quinazolin-7-yl)oxy)ethanol formation at 2 mg/kg, iv administered as infusion for 4 hrs; format: ADME, organism-based; conditions: in vivo
# [9] = Prodrug conversion in Han Wistar rat skin assessed as 2-((4-(Benzo[d]thiazol-5-ylamino)-6-(tert-butylsulfonyl)quinazolin-7-yl)oxy)ethanol formation at 2 mg/kg, iv administered as infusion for 4 hrs; format: ADME, organism-based, Zone of skin; conditions: in vivo
# [10] = Prodrug conversion in rat hepatocytes assessed as 2-((4-(Benzo[d]thiazol-5-ylamino)-6-(tert-butylsulfonyl)quinazolin-7-yl)oxy)ethanol formation at 20 uM measured after 4 hrs; format: ADME, cell-based, Hepatocyte
# [11] = Prodrug conversion in rat hepatocytes assessed as 2-(4-(benzo[d]thiazol-5-ylamino)-7-(2-hydroxyethoxy)quinazolin-6-ylsulfonyl)-2-methylpropan-1-ol formation at 20 uM measured after 4 hrs; format: ADME, cell-based, Hepatocyte
# [12] = Prodrug conversion in rat hepatocytes assessed as 2-(4-(benzo[d]thiazol-5-ylamino)-6-(tert-butylsulfonyl)quinazolin-7-yloxy)acetic acid formation at 20 uM measured after 4 hrs; format: ADME, cell-based, Hepatocyte
# [13] = Prodrug conversion in minipig hepatocytes assessed as oxidation at 20 uM measured after 4 hrs; format: ADME, cell-based, Sus scrofa, Hepatocyte; conditions: pig
# [14] = Prodrug conversion in human hepatocytes assessed as 2-(4-(benzo[d]thiazol-5-ylamino)-6-(tert-butylsulfonyl)-1,2,3,4-tetrahydroquinazolin-7-yloxy)ethanol formation at 20 uM measured after 4 hrs; format: ADME, cell-based, Hepatocyte
# [15] = Prodrug conversion in human hepatocytes assessed as 2-(4-(benzo[d]thiazol-5-ylamino)-6-(tert-butylsulfonyl)quinazolin-7-yloxy)acetic acid formation at 20 uM measured after 4 hrs; format: ADME, cell-based, Hepatocyte
# [16] = Prodrug conversion in human hepatocytes assessed as dephosphorylation at 20 uM measured after 4 hrs; format: ADME, cell-based, Hepatocyte
# [17] = Volume of distribution at steady state in Sprague-Dawley rat at 2 mg/kg, po or 0.5 mg/kg, iv by LC/MS/MS analysis; format: ADME, organism-based; conditions: in vivo, read-out: Vdss
# [18] = molecular target: T1, Ephrin type-A receptor 6 (Homo sapiens) (UniProt Q9UF33); experiment: Inhibition of human EPHA6 at 1 uM using poly[Glu:Tyr] (4:1) as substrate in presence of [gamma-33P]ATP relative to control
# T1 sequence (whole entry): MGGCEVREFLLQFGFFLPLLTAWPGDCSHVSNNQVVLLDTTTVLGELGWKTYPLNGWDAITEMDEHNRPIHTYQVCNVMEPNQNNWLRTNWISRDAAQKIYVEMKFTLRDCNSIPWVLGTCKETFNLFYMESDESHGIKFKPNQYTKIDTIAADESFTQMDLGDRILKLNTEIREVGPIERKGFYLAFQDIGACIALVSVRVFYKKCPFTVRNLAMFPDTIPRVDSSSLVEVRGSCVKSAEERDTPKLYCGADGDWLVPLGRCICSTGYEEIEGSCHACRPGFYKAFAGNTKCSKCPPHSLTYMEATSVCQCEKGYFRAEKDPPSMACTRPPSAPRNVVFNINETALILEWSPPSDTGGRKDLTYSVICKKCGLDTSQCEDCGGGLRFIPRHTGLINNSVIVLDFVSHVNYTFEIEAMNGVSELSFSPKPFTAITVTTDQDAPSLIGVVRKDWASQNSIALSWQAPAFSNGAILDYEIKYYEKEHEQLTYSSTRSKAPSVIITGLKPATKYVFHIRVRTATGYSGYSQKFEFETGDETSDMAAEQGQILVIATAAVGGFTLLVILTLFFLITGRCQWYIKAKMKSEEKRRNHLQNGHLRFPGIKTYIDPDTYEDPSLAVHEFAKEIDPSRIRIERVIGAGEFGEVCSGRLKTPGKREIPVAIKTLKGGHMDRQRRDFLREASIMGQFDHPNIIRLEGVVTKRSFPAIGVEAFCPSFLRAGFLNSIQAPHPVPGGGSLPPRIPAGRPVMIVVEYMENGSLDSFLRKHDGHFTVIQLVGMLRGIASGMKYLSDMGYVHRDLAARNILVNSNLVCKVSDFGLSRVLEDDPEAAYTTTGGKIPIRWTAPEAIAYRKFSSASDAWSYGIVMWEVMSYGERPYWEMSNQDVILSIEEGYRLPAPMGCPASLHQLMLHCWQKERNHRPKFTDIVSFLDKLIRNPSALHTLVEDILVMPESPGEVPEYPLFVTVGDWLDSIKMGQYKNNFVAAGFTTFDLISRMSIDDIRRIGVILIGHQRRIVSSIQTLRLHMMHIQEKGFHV
# [19] = Oral bioavailability in Sprague-Dawley rat at 2 mg/kg by LC/MS/MS analysis; format: ADME, organism-based; conditions: in vivo
# [20] = AUC in Sprague-Dawley rat at 20 mg/kg, po using crystalline sample during 7 day dose ranging study by LC/MS/MS analysis; format: ADME, organism-based; conditions: in vivo
# [21] = AUC in Sprague-Dawley rat at 60 mg/kg, po using crystalline sample during 7 day dose ranging study by LC/MS/MS analysis; format: ADME, organism-based; conditions: in vivo
# [22] = Solubility of the compound in FaSSIF measured after 4 hrs; format: physicochemical
# [23] = molecular target: Receptor-interacting serine/threonine-protein kinase 2 (Homo sapiens, UniProt O43353); experiment: Inhibition of RIPK2 in human whole blood assessed as reduction in MDP-induced TNFalpha production preincubated for 30 mins followed by MDP-stimulation and measured after 6 hrs by immunoassay; format: tissue-based
# Receptor-interacting serine/threonine-protein kinase 2, sequence (O43353 whole entry): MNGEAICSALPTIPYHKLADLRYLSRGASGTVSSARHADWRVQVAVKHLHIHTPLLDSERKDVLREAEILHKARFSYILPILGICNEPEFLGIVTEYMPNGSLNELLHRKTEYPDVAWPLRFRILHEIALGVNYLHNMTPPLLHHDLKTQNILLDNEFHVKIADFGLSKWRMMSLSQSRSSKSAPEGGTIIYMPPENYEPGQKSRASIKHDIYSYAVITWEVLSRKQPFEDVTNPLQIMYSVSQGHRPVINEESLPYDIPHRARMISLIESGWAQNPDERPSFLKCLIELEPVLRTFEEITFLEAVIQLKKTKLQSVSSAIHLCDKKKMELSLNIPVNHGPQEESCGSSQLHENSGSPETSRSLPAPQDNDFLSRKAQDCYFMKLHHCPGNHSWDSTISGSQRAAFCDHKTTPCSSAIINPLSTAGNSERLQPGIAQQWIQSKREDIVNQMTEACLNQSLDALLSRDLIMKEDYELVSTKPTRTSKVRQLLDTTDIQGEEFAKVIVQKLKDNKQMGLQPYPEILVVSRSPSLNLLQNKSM
# Intestinal mucosa [24] = experiment: Antiinflammatory activity in crohn's disease patient derived inflamed intestinal mucosa assessed as reduction in IL1beta production measured after overnight incubation by immunoassay; format: functional, tissue-based; conditions: Homo sapiens
# Intestinal mucosa [25] = experiment: Antiinflammatory activity in ulcerative colitis patient derived inflamed intestinal mucosa assessed as reduction in IL1beta production measured after overnight incubation by immunoassay; format: functional, tissue-based; conditions: Homo sapiens
structure (smiles),measurement,setting,value
CC(C)(C)S(=O)(=O)c1cc2c(Nc3ccc4scnc4c3)ncnc2cc1OCCOP(=O)(O)O.[CaH2],AUC,[1],0.58 µg·h/mL
same,Drug uptake,[2],Not Active
same,IC50,[3],> 30 µM
same,IC50,Cytochrome P450 3A4,> 30 µM
same,Cmax,[4],0.84 µg/mL
same,beta t1/2,[5],174 min
same,AUC,[6],1.1 µg·h/mL
same,half-life,[7],18.3 min
same,Drug metabolism,[8],Metabolite_Detected
same,Drug metabolism,[9],Metabolite_Detected
same,Drug metabolism,[10],Metabolite_Detected
same,Drug metabolism,[11],Metabolite_Detected
same,Drug metabolism,[12],Metabolite_Detected
same,Drug metabolism,[13],Metabolite_Detected
same,Drug metabolism,[14],Metabolite_Detected
same,Drug metabolism,[15],Metabolite_Detected
same,Drug metabolism,[16],Metabolite_Detected
CC(C)(C)S(=O)(=O)c1cc2c(Nc3ccc4scnc4c3)ncnc2cc1OCCO,Vd,[17],4.1 L/kg
same,inhibition,[18],70 to 90%
same,bioavailability,[19],39%
same,AUC at 168 h,[20],8.8 µg·h/mL
same,AUC at 168 h,[21],23.4 µg·h/mL
same,solubility at 4 h,[22],4 µg/mL
same,AUC,[1],0.46 µg·h/mL
same,Drug uptake,[2],Not Active
same,IC50,[3],> 30 µM
same,IC50,[23],0.026 µM
same,Activity,Intestinal mucosa [24],Dose-dependent effect
same,IC50,Intestinal mucosa [24],0.01 µM
same,Activity,Intestinal mucosa [25],Dose-dependent effect
same,IC50,Intestinal mucosa [25],0.01 µM
